From ChEMBL document CHEMBL3774345, “Synthesis of new diarylamides with pyrimidinyl pyridine scaffold and evaluation of their anti-proliferative effect on cancer cell lines” (Bioorg Med Chem Lett, 2016)

Key:
[1] = Cytotoxicity against human SKOV3 cells assessed as cell growth at 10^-8 M after 24 hrs by SRB assay; type: functional; settings: SK-OV-3, 24 h, read-out: Activity
[2] = test system: K562; experiment: Cytotoxicity against human K562 cells assessed as cell growth at 10^-7 M after 24 hrs by SRB assay; type: functional; settings: K562, 24 h, read-out: Activity
[3] = test system: A549; experiment: Cytotoxicity against human A549 cells assessed as cell growth at 10^-7 M after 24 hrs by SRB assay; type: functional; settings: A549, 24 h, read-out: Activity
[4] = test system: EKVX; experiment: Cytotoxicity against human EKVX cells assessed as cell growth at 10^-4 M after 24 hrs by SRB assay; type: functional; settings: read-out: Activity
[5] = Cytotoxicity against human SNB75 cells assessed as cell growth at 10^-7 M after 24 hrs by SRB assay; type: functional; settings: SNB-75, 24 h, read-out: Activity
[6] = Cytotoxicity against human SKOV3 cells assessed as cell growth at 10^-7 M after 24 hrs by SRB assay; type: functional; settings: SK-OV-3, 24 h, read-out: Activity
[7] = Cytotoxicity against human Caki1 cells assessed as cell growth at 10^-7 M after 24 hrs by SRB assay; type: functional; settings: CAKI-1, 24 h, read-out: Activity
[8] = test system: NCI-H226; experiment: Cytotoxicity against human NCI-H226 cells after 24 hrs by SRB assay; type: functional; settings: NCI-H226, 24 h
[9] = Cytotoxicity against human SF295 cells after 24 hrs by SRB assay; type: functional, cell-based; settings: SF-295, 24 h
[10] = test system: HT-29; experiment: Cytotoxicity against human HT-29 cells assessed as cell growth at 10^-4 M after 24 hrs by SRB assay; type: functional; settings: HT-29, 24 h, read-out: Activity
[11] = Cytotoxicity against human SW620 cells assessed as cell growth at 10^-4 M after 24 hrs by SRB assay; type: functional; settings: SW-620, 24 h, read-out: Activity
[12] = test system: T47D; experiment: Cytotoxicity against human T47D cells assessed as cell growth at 10^-7 M after 24 hrs by SRB assay; type: functional; settings: read-out: Activity
[13] = test system: K562; experiment: Cytotoxicity against human K562 cells assessed as cell growth at 10^-6 M after 24 hrs by SRB assay; type: functional; settings: K562, 24 h, read-out: Activity
[14] = Cytotoxicity against human UACC62 cells assessed as cell growth at 10^-4 M after 24 hrs by SRB assay; type: functional; settings: UACC-62, 24 h, read-out: Activity
[15] = Cytotoxicity against human SKOV3 cells assessed as cell growth at 10^-4 M after 24 hrs by SRB assay; type: functional; settings: SK-OV-3, 24 h, read-out: Activity
[16] = test system: SN12C; experiment: Cytotoxicity against human SN12C cells assessed as cell growth at 10^-4 M after 24 hrs by SRB assay; type: functional; settings: read-out: Activity
[17] = Cytotoxicity against human SNB19 cells assessed as cell growth at 10^-6 M after 24 hrs by SRB assay; type: functional; settings: SNB-19, 24 h, read-out: Activity
[18] = Cytotoxicity against human SNB75 cells assessed as cell growth at 10^-6 M after 24 hrs by SRB assay; type: functional; settings: SNB-75, 24 h, read-out: Activity
[19] = test system: SK-MEL-2; experiment: Cytotoxicity against human SK-MEL-2 cells assessed as cell growth at 10^-6 M after 24 hrs by SRB assay; type: functional; settings: SK-MEL-2, 24 h, read-out: Activity
[20] = Cytotoxicity against human IGROV1 cells assessed as cell growth at 10^-6 M after 24 hrs by SRB assay; type: functional; settings: IGROV-1, 24 h, read-out: Activity
[21] = Cytotoxicity against human OVCAR8 cells assessed as cell growth at 10^-6 M after 24 hrs by SRB assay; type: functional; settings: OVCAR-8, 24 h, read-out: Activity
[22] = Cytotoxicity against human UACC257 cells after 24 hrs by SRB assay; type: functional; settings: UACC-257, 24 h
[23] = Cytotoxicity against human OVCAR3 cells after 24 hrs by SRB assay; type: functional; settings: OVCAR-3, 24 h
[24] = Cytotoxicity against human MOLT4 cells assessed as cell growth at 10^-8 M after 24 hrs by SRB assay; type: functional; settings: MOLT-4, 24 h, read-out: Activity
[25] = test system: EKVX; experiment: Cytotoxicity against human EKVX cells assessed as cell growth at 10^-8 M after 24 hrs by SRB assay; type: functional; settings: read-out: Activity
[26] = test system: NCI-H460; experiment: Cytotoxicity against human NCI-H460 cells assessed as cell growth at 10^-8 M after 24 hrs by SRB assay; type: functional; settings: NCI-H460, 24 h, read-out: Activity
[27] = Cytotoxicity against human HCC2998 cells assessed as cell growth at 10^-8 M after 24 hrs by SRB assay; type: functional; settings: HCC 2998, 24 h, read-out: Activity
[28] = test system: U-251; experiment: Cytotoxicity against human U251 cells assessed as cell growth at 10^-8 M after 24 hrs by SRB assay; type: functional; settings: U-251, 24 h, read-out: Activity
[29] = test system: SK-MEL-2; experiment: Cytotoxicity against human SK-MEL-2 cells assessed as cell growth at 10^-8 M after 24 hrs by SRB assay; type: functional; settings: SK-MEL-2, 24 h, read-out: Activity
[30] = Cytotoxicity against human UACC62 cells assessed as cell growth at 10^-8 M after 24 hrs by SRB assay; type: functional; settings: UACC-62, 24 h, read-out: Activity
[31] = Cytotoxicity against human HL-60(TB) cells assessed as cell growth at 10^-5 M after 24 hrs by SRB assay; type: functional; settings: HL-60, 24 h, read-out: Activity
[32] = test system: SR; experiment: Cytotoxicity against human SR cells assessed as cell growth at 10^-5 M after 24 hrs by SRB assay; type: functional; settings: read-out: Activity
[33] = test system: NCI-H522; experiment: Cytotoxicity against human NCI-H522 cells assessed as cell growth at 10^-5 M after 24 hrs by SRB assay; type: functional; settings: NCI-H522, 24 h, read-out: Activity
[34] = Cytotoxicity against human SW620 cells assessed as cell growth at 10^-5 M after 24 hrs by SRB assay; type: functional; settings: SW-620, 24 h, read-out: Activity
[35] = test system: M14; experiment: Cytotoxicity against human M14 cells assessed as cell growth at 10^-5 M after 24 hrs by SRB assay; type: functional; settings: M14, 24 h, read-out: Activity
[36] = Cytotoxicity against human DU145 cells assessed as cell growth at 10^-5 M after 24 hrs by SRB assay; type: functional; settings: DU-145, 24 h, read-out: Activity
[37] = test system: MCF7; experiment: Cytotoxicity against human MCF7 cells assessed as cell growth at 10^-5 M after 24 hrs by SRB assay; type: functional; settings: MCF7, 24 h, read-out: Activity
[38] = read-out: LC50 (the source's name)
[39] = read-out: pLC50 (the source's name) (converted)

In the case of `O=C(Nc1cc(-c2cccnc2)nc(NCCCN2CCOCC2)n1)c1cc(Br)cc(C(F)(F)F)c1`, the growth at 0.01 µM [1] is reported as 97%, the growth at 0.1 µM [2] is reported as 91% and the growth at 0.1 µM [3] is reported as 109%. It also gave a growth at 100 µM [4] of -89%, a growth at 0.1 µM [5] of 84% and a growth at 0.1 µM [6] of 93%. The growth at 0.1 µM [7] was 90%, the GI50 ([8]; read-out: GI50) was 9.3 µM and the CC50 [8, 38] was 52.3 µM. It also gave a TGI ([8]; read-out: TGI) of 22.7 µM, a GI50 ([8]; read-out: pGI50 (converted)) of 9.33 µM and a CC50 [8, 39] of 52.5 µM. The TGI ([8]; read-out: pTGI (converted)) was 22.9 µM, the GI50 ([9]; read-out: GI50) was 1.94 µM and the CC50 [9, 38] was 7.97 µM. The TGI ([9]; read-out: TGI) was 3.93 µM, the GI50 ([9]; read-out: pGI50 (converted)) was 1.95 µM and the CC50 [9, 39] was 7.94 µM. It also gave a TGI ([9]; read-out: pTGI (converted)) of 3.89 µM, a growth at 100 µM [10] of -83% and a growth at 100 µM [11] of -87%. It also gave a growth at 0.1 µM [12] of 91%, a growth at 1 µM [13] of 88% and a growth at 100 µM [14] of -90%. For the same molecule, the growth at 100 µM [15] was -99%, the growth at 100 µM [16] was -85% and the growth at 1 µM [17] was 105%. It also gave a growth at 1 µM [18] of 74%, a growth at 1 µM [19] of 94% and a growth at 1 µM [20] of 92%. It also gave a growth at 1 µM [21] of 102%, a GI50 ([22]; read-out: GI50) of 2.1 µM and a CC50 [22, 38] of 6.8 µM. It also gave a TGI ([22]; read-out: TGI) of 3.78 µM, a GI50 ([22]; read-out: pGI50 (converted)) of 2.09 µM and a CC50 [22, 39] of 6.76 µM. For the same molecule, the TGI ([22]; read-out: pTGI (converted)) was 3.8 µM, the GI50 ([23]; read-out: GI50) was 3.7 µM and the CC50 [23, 38] was 35.8 µM. The TGI ([23]; read-out: TGI) was 12.8 µM, the GI50 ([23]; read-out: pGI50 (converted)) was 3.72 µM and the CC50 [23, 39] was 35.5 µM. It also gave a TGI ([23]; read-out: pTGI (converted)) of 12.9 µM, a growth at 0.01 µM [24] of 99% and a growth at 0.01 µM [25] of 92%. For the same molecule, the growth at 0.01 µM [26] was 99%, the growth at 0.01 µM [27] was 96% and the growth at 0.01 µM [28] was 97%. For the same molecule, the growth at 0.01 µM [29] was 109%, the growth at 0.01 µM [30] was 89% and the growth at 10 µM [31] was -27%. It also gave a growth at 10 µM [32] of 1%, a growth at 10 µM [33] of -32% and a growth at 10 µM [34] of -34%. The growth at 10 µM [35] was -80%, the growth at 10 µM [36] was 39% and the growth at 10 µM [37] was -3%.
